US20240376074A1, “NAMPT INHIBITORS AND USES THEREOF” (Remedy Plan, Inc., priority 2021, published 2024)

Molecular target: T1, NAMPT (Homo sapiens, UniProt P43490)
T1 construct: purchased Abcam ab221819
Assay: NAMPT Activity Assay (Abcam #ab221819)
Type: biochemical
Conditions: purified NAMPT, percent inhibition from OD450 nm; compound concentration not given
Experimental: The NAMPT Activity Assay (Abcam #ab221819) was performed following manufacturers two-step reaction protocol. Briefly, compounds were added to a clear 96-well plate using the HP D300e Digital Dispenser. Purified NAMPT was added to all wells except the No NAMPT controls. Reaction Mix #1 was added to each well and the plate was incubated at 30*C for 1 hr followed by the addition of Reaction Mix #2. Absorbance was measured at OD450 nm using a multimode plate reader. Readings were recorded for 5 minutes and percent inhibition was calculated using: (1-(OD450 nm compound/OD450nm no drug))*100.

T1 sequence (P43490 whole entry): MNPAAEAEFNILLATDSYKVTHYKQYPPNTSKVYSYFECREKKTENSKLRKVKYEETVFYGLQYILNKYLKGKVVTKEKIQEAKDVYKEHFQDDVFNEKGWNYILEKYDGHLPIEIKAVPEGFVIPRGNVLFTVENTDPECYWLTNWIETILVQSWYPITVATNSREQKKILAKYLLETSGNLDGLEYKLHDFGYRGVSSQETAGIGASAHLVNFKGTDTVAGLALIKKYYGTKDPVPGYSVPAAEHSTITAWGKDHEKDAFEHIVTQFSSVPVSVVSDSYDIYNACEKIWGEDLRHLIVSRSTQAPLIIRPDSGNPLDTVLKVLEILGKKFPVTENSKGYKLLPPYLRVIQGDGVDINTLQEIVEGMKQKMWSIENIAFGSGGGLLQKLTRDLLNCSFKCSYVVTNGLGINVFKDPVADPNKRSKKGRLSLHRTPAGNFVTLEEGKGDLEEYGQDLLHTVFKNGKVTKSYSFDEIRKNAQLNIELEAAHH

SMILES	NAMPT Inhibition Code*
CC(=O)N(CC(F)F)c1ccc(-c2ccc(C(=O)NCCCc3cn[nH]c3)cn2)cc1Cl [I-T2108, 6-[4-[Acetyl(2,2-difluoroethyl)amino]-3-chloro-phenyl]-N-[3-(1H-pyrazol-4-yl)propyl]pyridine-3-carboxamide]	C (C = ≥66% inhibition)
CC(=O)N(CC1CC1)c1ccc(-c2ccc(C(=O)NCCc3cn[nH]c3)cn2)cc1Cl [I-T2111, 6-[4-[Acetyl(cyclopropylmethyl)amino]-3-chloro-phenyl]-N-[2-(1H-pyrazol-4-yl)ethyl]pyridine-3-carboxamide]	C (C = ≥66% inhibition)
CC(=O)N(CC1CC1)c1ccc(-c2ccc(C(=O)NCc3ccccc3)cn2)cc1Cl [I-T2113, 6-[4-[Acetyl(cyclopropylmethyl)amino]-3-chloro-phenyl]-N-benzyl-pyridine-3-carboxamide]	C (C = ≥66% inhibition)
CC(=O)N(CC(F)F)c1ccc(-c2ccc(C(=O)NCCc3cn[nH]c3)cn2)cc1Cl [I-T2114, 6-[4-[Acetyl(2,2-difluoroethyl)amino]-3-chloro-phenyl]-N-[2-(1H-pyrazol-4-yl)ethyl]pyridine-3-carboxamide]	A (*A = <33% inhibition)
CC(=O)N(CC1CC1)c1ccc(-c2ccc(C(=O)NCC3CCOC3)cn2)cc1Cl (stereo not drawn) [I-T2115, 6-[4-[Acetyl(cyclopropylmethyl)amino]-3-chloro-phenyl]-N-(tetrahydrofuran-3-ylmethyl) pyridine-3-carboxamide]	A (*A = <33% inhibition)
CC(=O)N(CC1CC1)c1ccc(-c2ccc(NC(=O)COc3cccnc3)cn2)cc1Cl [I-T2119, N-[6-[4-[acetyl(cyclopropylmethyl)amino]-3-chloro-phenyl]-3-pyridyl]-2-(3-pyridyloxy)-acetamide]	C (C = ≥66% inhibition)
CC(=O)N(CC1CC1)c1ccc(-c2ccc(C(=O)NCc3ccc[nH]3)cn2)cc1Cl [I-T2121, 6-[4-[Acetyl(cyclopropylmethyl)amino]-3-chloro-phenyl]-N-(1H-pyrrol-2-ylmethyl)pyridine-3-carboxamide]	B (B = >33 to <66% inhibition)
CC(=O)N(CC1CC1)c1ccc(-c2ccc(NC(=O)/C=C/c3cccnc3)cn2)cc1Cl [I-T2124, (E)-N-[6-[4-[acetyl(cyclopropylmethyl)amino]-3-chloro-phenyl]-3-pyridyl]-3-(3-pyridyl)prop-2-enamide]	C (C = ≥66% inhibition)
CC(=O)N(CC1CC1)c1ccc(-c2ccc(C(=O)NCCCc3cc[nH]n3)cn2)cc1Cl [I-T2127, 6-[4-[Acetyl(cyclopropylmethyl)amino]-3-chloro-phenyl]-N-[3-(1H-pyrazol-3-yl)propyl]pyridine-3-carboxamide]	C (C = ≥66% inhibition)
CC(=O)N(CC1CC1)c1ccc(-c2ccc(C(=O)NCCCn3ccnc3)cn2)cc1Cl [I-T2128, 6-[4-[Acetyl(cyclopropylmethyl)amino]-3-chloro-phenyl]-N-(3-imidazol-1-ylpropyl)pyridine-3-carboxamide]	C (C = ≥66% inhibition)
CC(=O)N(CC1CC1)c1ccc(-c2ccc(C(=O)NCCc3cccnc3)cn2)cc1Cl [I-T2130, 6-[4-[Acetyl(cyclopropylmethyl)amino]-3-chloro-phenyl]-N-[2-(3-pyridyl)ethyl]pyridine-3-carboxamide]	C (C = ≥66% inhibition)
CC(=O)N(CC1CC1)c1ccc(-c2ccc(C(=O)NCc3cc[nH]n3)cn2)cc1Cl [I-T2132, 6-[4-[Acetyl(cyclopropylmethyl)amino]-3-chloro-phenyl]-N-(1H-pyrazol-3-ylmethyl)pyridine-3-carboxamide]	A (*A = <33% inhibition)
CC(=O)N(CC1CC1)c1ccc(-c2ccc(C(=O)Nc3ccc4[nH]cnc4c3)cn2)cc1Cl [I-T2137, 6-[4-[Acetyl(cyclopropylmethyl)amino]-3-chloro-phenyl]-N-(1H-benzimidazol-5-yl)pyridine-3-carboxamide]	C (C = ≥66% inhibition)
CC(=O)N(CC1CC1)c1ccc(-c2ccc(C(=O)N3Cc4ccncc4C3)cn2)cc1Cl [I-T2138, N-[2-Chloro-4-[5-(1,3-dihydropyrrolo[3,4-c]pyridine-2-carbonyl)-2-pyridyl]phenyl]-N-(cyclopropylmethyl)acetamide]	A (*A = <33% inhibition)
CC(=O)N(CC1CC1)c1ccc(-c2ccc(C(=O)Nc3cnc4nccn4c3)cn2)cc1Cl [I-T2140, 6-[4-[Acetyl(cyclopropylmethyl)amino]-3-chloro-phenyl]-N-imidazo[1,2-a]pyrimidin-6-yl-pyridine-3-carboxamide]	C (C = ≥66% inhibition)
CC(=O)N(CC1CC1)c1ccc(-c2ccc(C(=O)NCc3cccnn3)cn2)cc1Cl [I-T2146, 6-[4-[Acetyl(cyclopropylmethyl)amino]-3-chloro-phenyl]-N-(pyridazin-3-ylmethyl)pyridine-3-carboxamide]	B (B = >33 to <66% inhibition)
CC(=O)N(CC1CC1)c1ccc(-c2ccc(C(=O)NCc3cncnc3)cn2)cc1Cl [I-T2147, 6-[4-[Acetyl(cyclopropylmethyl)amino]-3-chloro-phenyl]-N-(pyrimidin-5-ylmethyl)pyridine-3-carboxamide]	A (*A = <33% inhibition)
CC(=O)N(CC1CC1)c1ccc(-c2ccc(C(=O)NCc3ccsc3)cn2)cc1Cl [I-T2149, 6-[4-[Acetyl(cyclopropylmethyl)amino]-3-chloro-phenyl]-N-(3-thienylmethyl)pyridine-3-carboxamide]	B (B = >33 to <66% inhibition)
CC(=O)N(CC1CC1)c1ccc(-c2ccc(C(=O)NCCc3c[nH]cn3)cn2)cc1Cl [I-T2150, 6-[4-[Acetyl(cyclopropylmethyl)amino]-3-chloro-phenyl]-N-[2-(1H-imidazol-4-yl)ethyl]pyridine-3-carboxamide]	C (C = ≥66% inhibition)
CC(=O)N(CC1CC1)c1ccc(-c2ccc(C(=O)NCc3c[nH]cn3)cn2)cc1Cl [I-T2151, 6-[4-[Acetyl(cyclopropylmethyl)amino]-3-chloro-phenyl]-N-(1H-imidazol-4-ylmethyl)pyridine-3-carboxamide]	A (*A = <33% inhibition)
CC(=O)N(CC1CC1)c1ccc(-c2ccc(C(=O)NC3Cc4ccccc4C3)cn2)cc1Cl [I-T2152, 6-[4-[Acetyl(cyclopropylmethyl)amino]-3-chloro-phenyl]-N-indan-2-yl-pyridine-3-carboxamide]	B (B = >33 to <66% inhibition)
CC(=O)N(CC1CC1)c1ccc(-c2ccc(C(=O)NC3Cc4ccc(Br)cc4C3)cn2)cc1Cl (stereo not drawn) [I-T2153, 6-[4-[Acetyl(cyclopropylmethyl)amino]-3-chloro-phenyl]-N-(5-bromoindan-2-yl)pyridine-3-carboxamide]	A (*A = <33% inhibition)
CC(=O)N(CC1CC1)c1ccc(-c2ccc(C(=O)NCc3cnccn3)cn2)cc1Cl [I-T2154, 6-[4-[Acetyl(cyclopropylmethyl)amino]-3-chloro-phenyl]-N-(pyrazin-2-ylmethyl)pyridine-3-carboxamide]	A (*A = <33% inhibition)
CC(=O)N(CC(F)F)c1ccc(-c2ccc(C(=O)Nc3cnc4nccn4c3)cn2)cc1Cl [I-T2201, 6-[4-[Acetyl(2,2-difluoroethyl)amino]-3-chloro-phenyl]-N-imidazo[1,2-a]pyrimidin-6yl-pyridine-3-carboxamide]	C (C = ≥66% inhibition)
CC(=O)N(CC(F)F)c1ccc(-c2ccc(C(=O)NCCc3cccnc3)cn2)cc1Cl [I-T2205, 6-[4-[Acetyl(2,2-difluoroethyl)amino]-3-chloro-phenyl]-N-[2-(3-pyridyl)ethyl]pyridine-3-carboxamide]	C (C = ≥66% inhibition)
CC(=O)N(CC1CC1)c1ccc(-c2ccc(NC(=O)Cc3cccnc3)cn2)cc1Cl [I-T2267, N-[6-[4-[acetyl(cyclopropylmethyl)amino]-3-chloro-phenyl]-3-pyridyl]-2-(3-pyridyl)acetamide]	C (C = ≥66% inhibition)
CC(=O)N(CC1CC1)c1ccc(-c2ccc(C(=O)NCCCc3cn[nH]c3)cn2)cc1Cl [I-T2269, 6-[4-[Acetyl(cyclopropylmethyl)amino]-3-chloro-phenyl]-N-[3-(1H-pyrazol-4-yl)propyl]pyridine-3-carboxamide]	C (C = ≥66% inhibition)
CC(=O)N(CC1CC1)c1ccc(-c2ccc(C(=O)N3Cc4ccccc4C3)cn2)cc1Cl [I-T2270, N-[2-Chloro-4-[5-(isoindoline-2-carbonyl)-2-pyridyl]phenyl]-N-(cyclopropylmethyl)acetamide]	B (B = >33 to <66% inhibition)
CC(=O)N(CC(F)F)c1ccc(-c2ccc(C(=O)NCc3ccccc3)cn2)cc1Cl [I-T2284, 6-[4-[Acetyl(2,2-difluoroethyl)amino]-3-chloro-phenyl]-N-benzyl-pyridine-3-carboxamide]	A (*A = <33% inhibition)
CC(=O)N(CC(F)F)c1ccc(-c2ccc(C(=O)NCCCc3cc[nH]n3)cn2)cc1Cl [I-T2287, 6-[4-[Acetyl(2,2-difluoroethyl)amino]-3-chloro-phenyl]-N-[3-(1H-pyrazol-3-yl)propyl]pyridine-3-carboxamide]	C (C = ≥66% inhibition)
